According to patent US5232633A, “Sulfoethyl carbonate wetting agents and their use in detergent compositions” (priority 1992, dated 1993):
Where two headings read alike, the source gives them in different places.

How the values were obtained:
zein = tested on: zein; parameters: species or system maize
Description: Specifically, the lower the amount of zein protein dissolved, usually the milder a surfactant is. Conversely, the more zein dissolved, typically the more irritating the surfactant is. In order to test irritancy potential, a 1% solution of surfactant (30 mls) was added to 1.5 g zein and stirred at room temperature for 1 hr. Residual zein was collected and dried to constant weight. Differences between starting and residual weights were used to calculate % zein dissolved.

[1] = Foam height, Ross-Miles method; assay type: physicochemical; conditions: 45° C., water with 120 ppm calcium hardness; for Foam Ht., 10 min Ht.: after 10 minutes
[2] = Krafft point of 1% dispersion of surfactant in water; assay type: physicochemical; conditions: for Krafft Pt.: 1% dispersion in water; for Krafft point (in words): compared with SLI
Description: The temperature at and above which surfactants begin to form micelles instead of precipitates is referred to as Krafft point (Tk) and at this temperature the solubility of an ionic surfactant becomes equal to its CMC.
Krafft point was measured by preparing a 1% dispersion of the surfactant in water. If the surfactant was soluble at room temperature, the solution was cooled to 0° C. […] If it precipitated out, the solution was slowly warmed with stirring in a water bath. The temperature at which the precipitate dissolved was determined to be the Krafft point.
If the Krafft point was above room temperature, the solution was first heated rapidly to dissolve all the surfactant. It was then cooled until precipitation occurred, and was then slowly warmed to determine the Krafft point described above.

[3] = Critical micelle concentration by surface tension (Wilhemy plate method); assay type: physicochemical
From the text: The CMC is defined as the concentration of a surfactant at which it begins to form micelles in solution rather than precipitate. Specifically, materials that contain both a hydrophobic group and a hydrophilic group, (such as surfactants), will tend to distort the structure of the solvent (i.e, water) they are in and, therefore, increase the free energy of the system. They therefore, concentrate at the surface, whereby orienting so that their hydrophobic groups are directed away from the solvent, the free energy of the solution is minimized. Another means of minimizing the free energy can be achieved by the aggregation of these surface-active molecules into clusters or micelles with their hydrophobic groups directed toward the interior of the cluster and their hydrophilic groups directed toward the solvent.
The value of the CMC is determined by surface tension measurements using the Wilhemy plate method. While not wishing to be bound by theory, it is believed that a low CMC is a measure of surface activity (i.e, lower CMC of one surfactant versus another indicates the surfactant with lower CMC is more surface active). In this regard, it is believed that lower CMC signifies that lesser amounts of a surfactant are required to provide the same surfactancy benefits as a surfactant with higher CMC.

[4] = Calcium ion sensitivity, modified Hart method; assay type: physicochemical; conditions: for Ca + 2 Needed for Prec.: titration with calcium ion solution, visual cloudiness endpoint
Description: The surfactant solution was titrated with a calcium ion solution. The endpoint was determined by visual observation of the cloudiness of the surfactant solution.

[5] = Hydrolytic stability at pH 9, 40° C. by reverse phase HPLC; assay type: physicochemical; conditions: 5×10^-4 M in NaHCO3 buffer with 5% CH3CN, 500 µM
[6] = 1% solution of surfactant (30 mls), 1.5 g zein, room temperature, 1 hr

| Compound | Foam Ht., 10 min Ht. [1] | Krafft Pt. [2] [°C] | CMC [3] [mM] | Ca + 2 Needed for Prec. [4] [ppm] | Hydrolytic Stability, t 1/2 [5] | % Zein Solub. (zein; [6]) [%] | Foam Ht., Initial Ht. [1] | % Zein Solub. (zein) [%] | Krafft point (in words) [2] | Calcium sensitivity (in words) ([4]; compared with non-carbonated isethionate (SLI)) |
| --- | --- | --- | --- | --- | --- | --- | --- | --- | --- | --- |
| CCCCCCCCCCCCOC(=O)OCCS(=O)(=O)O.[Na] | 149 mm | 24 | 2.52 | 150 | 55.2 h | – | – | 49 | same Krafft point as the SLI | greater calcium insensitivity than the ester SLI |
| CCCCCCCCCCCCOCCOCCOC(=O)OCCS(=O)(=O)O [SED(2EO)C, Sodium 2-sulfoethyl dodecyl (2EO) carbonate] | 160 mm | – | – | – | – | 25 | 165 mm | – | – | – |
| CCCCCCCCCCCCOCCOCCOCCOCCOC(=O)OCCS(=O)(=O)O [SED(4EO)C, Sodium 2-sulfoethyl dodecyl (4EO) carbonate] | 152 mm | – | – | – | – | 17 | 158 mm | – | – | – |
| CCCCCCCCCCC(C)OC(=O)OC(C)CS(=O)(=O)O (stereo not shown) [SI2DC, Sodium 2-sulfoisopropyl 2-dodecyl carbonate] | 149 mm | 30 | 2.6 to 2.8 | 2500 | ≈ 70 Days | 49 | 156 mm | – | higher | – |

The next lines start with results.

| Foam Ht., 10 min Ht. [1] | Krafft Pt. [2] [°C] | CMC [3] [mM] | Ca + 2 Needed for Prec. [4] [ppm] | Hydrolytic Stability, t 1/2 [5] | % Zein Solub. (zein; [6]) [%] | Foam Ht., Initial Ht. [1] | Compound | % Zein Solub. (zein) [%] | Krafft point (in words) [2] | Calcium sensitivity (in words) ([4]; compared with non-carbonated isethionate (SLI)) |
| --- | --- | --- | --- | --- | --- | --- | --- | --- | --- | --- |
| 142 mm | 0 | 1.46 | 725 | 1030 h | 41 | 166 mm | CCCCCCCCCCCCOC(=O)OC(CC)CS(=O)(=O)O (stereo not shown) [S2DBC, Sodium 2-(1-sulfo)butyl dodecyl carbonate] | – | – | – |
| 160 mm | 0 | 3.7 to 4.0 | > 2700 | 223 h | 47 | 162 mm | CCCCCCCCCCC(C)OC(=O)OCCS(=O)(=O)O (stereo not shown) [SE2DC, Sodium 2-sulfoethyl 2-dodecylcarbonate] | – | – | – |
| 161 mm | 15 | 2.39 | 2000 | 286 h | 51 | 165 mm | CCCCCCCCCCCCOC(=O)OC(C)CS(=O)(=O)O (stereo not shown) [SIDC, Sodium 2-sulfoisopropyl dodecyl carbonate] | – | – | – |
| negligible | 24 | 6.2 | 51 | 24 h | – | negligible | CCCCCCCCCCCC(=O)OCCS(=O)(=O)O [SLI, sodium lauroyl isethionate, reference compound] | – | – | – |
